# Data: patent publication US20060293309A1, “Method of treating disorders and conditions using peripherally-restricted antagonists and inhibitors” (Dynogen Pharmaceuticals, Inc., priority 2005, published 2006)
# Tests used:
# cisplatin-induced emesis = assay: cisplatin-induced retching and vomiting in the ferret; type: in vivo, ferret (Mustela putario furo); conditions: 5 mg/kg and 10 mg/kg i.p., 6 h observation
# Protocol: The suitability of a compound of the invention to reduce retching and vomiting therapeutically is assessed in an accepted animal model of cytotoxin-induced emesis. Specifically, the experiments described herein are used to investigate the effect of a compound to reduce cisplatin-induced retching and/or vomiting in the ferret. Ondansetron is used as a positive control in the model, in view of its known antiemetic activity (Rudd and Naylor, Eur. J. Pharmacol., 322: 79-82 (1997)).
# Adult male ferrets (Mustela putario furo) weighing 1200-1880g are purchased from Triple F Farns (Sayre, Pa.) and housed in individual cages at standardized conditions (12:12 h light/dark cycle and 21-23° C.). […]
# Experiments are performed essentially as follows. […] Following administration of the cisplatin and either the test compound, ondansetron (control) or vehicle alone, the occurrence of retching and vomiting is monitored for a period of 6 hours. […] The latency of the retching or vomiting response and the number of episodes are recorded for each animal and are summarized for each experimental group (Wright et al., Infect. Immun., 68(4): 2386-9 (2000)). […]
# Cisplatin is expected to induce an emetic response in 100% of the animals receiving vehicle alone. […] The mean latency of the first response post-cicplatin administration is also determined.
# [1] = target: T1, norepinephrine transporter (NET), human recombinant from CHO cells (Homo sapiens, UniProt P23975); assay: norepinephrine transporter (NET) binding assay ([3H]nisoxetine)
# T1 construct: expressed in transfected cells; host or cells: CHO
# Protocol: (§1) The binding of MCI 225 QUAT to various receptors/transporters was compared to that of the non-quaternized parent compound, MCI-225. Binding assays were performed essentially according to procedures as follows.
# The norepinephrine transporter (NET) assay was performed essentially as described in Raisman et al. (1982) Eur. J. Pharmacol. 78:345-351 (minor modifications); and Raisman and Briley (1981) Eur. J. Pharmacol. 72:423. Briefly, human recombinant receptors were from CHO cells. Tritiated radioligand (nisoxetine) was used. % specific binding was determined as a function of log [compound]. Desipramine (DMI) was used as nonspecific determinant, reference compound and positive control.
# [2] = target: T2, 5-HT3 human recombinant receptors from HEK-293 cells (Homo sapiens, UniProt P46098); assay: 5-HT3 human recombinant binding assay ([3H]GR 65630)
# T2 construct: expressed in transfected cells; host or cells: HEK-293
# T2 sequence (P46098 24-478): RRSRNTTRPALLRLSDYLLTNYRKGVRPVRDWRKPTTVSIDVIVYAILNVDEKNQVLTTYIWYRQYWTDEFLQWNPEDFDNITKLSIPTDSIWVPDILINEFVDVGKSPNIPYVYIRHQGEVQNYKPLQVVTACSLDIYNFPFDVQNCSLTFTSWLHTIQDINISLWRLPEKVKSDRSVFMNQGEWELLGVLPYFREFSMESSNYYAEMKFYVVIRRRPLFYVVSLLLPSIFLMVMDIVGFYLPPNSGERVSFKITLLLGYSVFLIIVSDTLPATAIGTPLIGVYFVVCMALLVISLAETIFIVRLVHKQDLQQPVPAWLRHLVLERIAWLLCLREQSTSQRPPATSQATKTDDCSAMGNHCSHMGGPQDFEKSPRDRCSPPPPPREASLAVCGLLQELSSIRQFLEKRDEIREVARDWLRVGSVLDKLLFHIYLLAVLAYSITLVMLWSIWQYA
# Protocol: as §1
# The 5-HT3 human recombinant binding assay was performed essentially as described in Lummis et al. (1990) Eur. J. Pharmacol. 189:223-27; Hoyer et al. (1988) Mol. Pharmacol. 33:303; and Tyers et al. (1991) Therapie 46:431-435. Briefly, human recombinant receptors were from HEK-293 cells. Tritiated radioligand (GR 65630) was used. % specific binding was determined as a function of log [compound]. MDL 72222 (1 alpha H, 3 alpha, 5 alpha H-tropan-3-yl-3,5-dichlorobenzoate) was used as nonspecific determinant, reference compound and positive control.
# [3] = target: T3, serotonin transporter (SERT), human platelet membranes (Homo sapiens, UniProt P31645); assay: serotonin transporter (SERT) binding assay ([3H]N-methyl citalopram)
# T3 construct: Briefly, human recombinant receptors were from human platelet membranes; from tissue; host or cells: human platelet membranes
# Protocol: Binding assays were performed essentially according to procedures as follows.
# The serotonin transporter (SERT) assay was performed essentially as described in D'Armato et al. (1987) J. Pharmacol. & Exp. Ther. 242:364-371 (with modification); and Brown et al. (1986) Eur. J. Pharmacol. 123:161-165. Briefly, human recombinant receptors were from human platelet membranes. Tritiated radioligand (N-methyl citalopram) was used. % specific binding was determined as a function of log [compound]. Imipramine was used as nonspecific determinant, reference compound and positive control.
# T1 sequence (P23975 whole entry): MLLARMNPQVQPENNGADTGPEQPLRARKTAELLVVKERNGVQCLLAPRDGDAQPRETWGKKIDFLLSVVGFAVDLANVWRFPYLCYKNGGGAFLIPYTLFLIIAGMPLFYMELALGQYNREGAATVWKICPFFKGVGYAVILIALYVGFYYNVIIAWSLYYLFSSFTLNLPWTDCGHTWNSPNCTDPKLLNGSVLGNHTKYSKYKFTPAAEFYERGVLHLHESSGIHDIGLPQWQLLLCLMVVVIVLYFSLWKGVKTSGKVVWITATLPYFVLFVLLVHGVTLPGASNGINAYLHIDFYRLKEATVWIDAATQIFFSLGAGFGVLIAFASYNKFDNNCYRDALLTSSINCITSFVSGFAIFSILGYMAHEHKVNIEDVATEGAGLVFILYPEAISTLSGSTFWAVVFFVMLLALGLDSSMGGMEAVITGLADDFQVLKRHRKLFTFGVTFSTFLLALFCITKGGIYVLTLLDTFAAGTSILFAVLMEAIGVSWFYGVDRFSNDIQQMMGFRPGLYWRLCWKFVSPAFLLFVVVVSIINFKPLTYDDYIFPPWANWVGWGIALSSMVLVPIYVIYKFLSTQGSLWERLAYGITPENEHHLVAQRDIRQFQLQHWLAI
# T3 sequence (P31645 whole entry): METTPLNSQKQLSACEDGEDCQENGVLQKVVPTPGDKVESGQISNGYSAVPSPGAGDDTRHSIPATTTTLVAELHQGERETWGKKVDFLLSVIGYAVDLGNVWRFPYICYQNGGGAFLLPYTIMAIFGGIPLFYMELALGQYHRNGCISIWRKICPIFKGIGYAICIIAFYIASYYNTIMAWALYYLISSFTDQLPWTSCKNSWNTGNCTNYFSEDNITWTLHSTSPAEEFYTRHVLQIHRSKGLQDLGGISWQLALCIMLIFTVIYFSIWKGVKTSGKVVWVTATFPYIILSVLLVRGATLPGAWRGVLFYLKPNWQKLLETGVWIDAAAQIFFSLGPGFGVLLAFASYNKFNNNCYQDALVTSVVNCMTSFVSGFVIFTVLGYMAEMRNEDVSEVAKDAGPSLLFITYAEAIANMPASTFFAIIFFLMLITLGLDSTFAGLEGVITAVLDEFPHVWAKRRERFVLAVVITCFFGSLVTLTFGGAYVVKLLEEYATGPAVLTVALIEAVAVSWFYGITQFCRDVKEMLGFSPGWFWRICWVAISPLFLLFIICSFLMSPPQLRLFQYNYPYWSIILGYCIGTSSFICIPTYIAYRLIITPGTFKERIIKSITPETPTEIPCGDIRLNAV
NET (hr) % specific binding ([1]; Conc. 1.00E−06) [%],NET (hr) % specific binding ([1]; Conc. 1.00E−08) [%],NET (hr) % specific binding ([1]; Conc. 1.00E−10) [%],5-HT3 (hr) % specific binding ([2]; Conc. 1.00E−06) [%],5-HT3 (hr) % specific binding ([2]; Conc. 1.00E−08) [%],5-HT3 (hr) % specific binding ([2]; Conc. 1.00E−10) [%],SERT (h) % specific binding ([3]; Conc. 1.00E−06) [%],SERT (h) % specific binding ([3]; Conc. 1.00E−08) [%],SERT (h) % specific binding ([3]; Conc. 1.00E−10) [%],Structure (SMILES),latency of the first emetic response induced by cisplatin (cisplatin-induced emesis),number of emetic events induced by cisplatin (cisplatin-induced emesis)
–,–,–,–,–,–,–,–,–,"Cc1nccn1CC1CCc2c(c3ccccc3n2C)C1=O (centres unmarked) [Ondansetron, ondansetron]",increase the latency,reduce the number of emetic events
104,72,17,100,22,0,94,10,1,"Cc1cc2c(-c3ccccc3F)nc(N3CCNCC3)nc2s1 [compound 225, 4-(2-fluoro-phenyl)-6-methyl-2-piperazin-1-yl-thieno[2,3-d]pyrimidine]",–,–
